Laboratory results from US8518935B2, “Amorphous besifloxacin solid” (Bausch & Lomb Incorporated, priority 2009, dated 2013).
In brackets after ≈: the same amount, converted by molar mass.

Assay: Solubility in water at room temperature and pH of about 7
Format: physicochemical

SMILES	solubility in water (room temperature)	solubility (pH 7, room temperature)
N[C@@H]1CCCCN(c2c(F)cc3c(=O)c(C(=O)O)cn(C4CC4)c3c2Cl)C1 [besifloxacin free base starting material, (R)-(+)-7-(3-amino-2,3,4,5,6,7-hexahydro-1H-azepin-1-yl)-1-cyclopropyl-8-chloro-6-fluoro-1,4-dihydro-4-oxoquinoline-3-carboxylic acid]	73.3 µg/mL (≈ 186 µM)	
N[C@@H]1CCCCN(c2c(F)cc3c(=O)c(C(=O)O)cn(C4CC4)c3c2Cl)C1 [amorphous besifloxacin free base, (R)-(+)-7-(3-amino-2,3,4,5,6,7-hexahydro-1H-azepin-1-yl)-1-cyclopropyl-8-chloro-6-fluoro-1,4-dihydro-4-oxoquinoline-3-carboxylic acid]		516 µg/mL (≈ 1310 µM)
